Reference: patent publication US9464113B2, “Anti-heparan sulfate peptides that block herpes simplex virus infection in vivo” (The Board of Trustees of the University of Illinois, priority 2010, dated 2016)
No end group written: not given here.

Legend:
HSV-1 (KOS) = assay: Mouse cornea model of HSV-1 infection (immunohistochemistry); assay type: in vivo, BALB/c mice
Procedure: BALB/c mice with pre-scarred corneal upper surface were treated with PBS-based eye drops containing 0.5 mM G1, G2, or control peptide followed by inoculation of HSV-1 (KOS). Mice were sacrificed after 4 and 7 days for HSV-1 detection. Immunohistochemistry was performed as described by Akhtar et al., Invest. Ophthalmol. Vis. Sci. 49:4026-4035 (2008). Briefly, tissue sections were hydrated with distilled water and antigen retrieval was performed using DAKO Target Retrieval Solution 10× concentrate (DAKO, Carpinteria, Calif.). Nonspecific staining was blocked using H2O2 solution for 10 minutes followed by a protein block for 10 minutes. Sections were incubated with HSV-1 gD specific antiserum (1:100 dilution) at room temperature for 1 hr followed by a 40-minute incubation with the secondary antibody (HRP-conjugated goat anti-rabbit IgG, 1:500; Sigma, St. Louis, Mo.). Expression of gD was detected using the DAKO Envision^+ kit. Confocal and differential interference contrast (DIC) image acquisition was conducted with an SB2-AOBS confocal microscope (Leica, Solms, Germany).
Immunohistochemistry was used to locate HSV-1 glycoprotein D (gD) expression in the cornea pre-treated with either a control peptide, G1 or G2 followed by HSV-1 infection. 100 μl of G1, G2, or Cp (control) peptide at 0.5 mM concentration was poured into the mouse cornea as a prophylactic “eye drop” followed by an infection with HSV-1 (KOS) at 10^6 PFU. At 4 or 7 days post infection, immunohistochemistry was performed using anti-HSV-1 gD polyclonal antibody.

HSV-1 (KOS) gL86 = assay: HSV-1 entry into HeLa cells (ONPG and X-gal); assay type: cell-based, herpes simplex virus type-1; conditions: for blocking of HSV-1 entry/infection: HeLa cells, 60 min pre-treatment, 25 pfu/cell, 6 hr
Procedure: HSV-1 entry was assayed as described in Shukla et al., Cell 99:13-22 (1999). CHO-K1 cells were grown in 6-well plates to subconfluence and then transfected with 2.5 μg of expression plasmids for gD receptors nectin-1 (pBG38), HVEM (pBec10), 3-OST-3 isoform (pDS43), or pCDNA3.1 (empty vector) using LipofectAMINE (Gibco/BRL). At 16 h post-transfection, the cells were replated into 96-well dishes for pre-incubation with peptides at different concentrations for 60 min at room temperature. In parallel, natural target cells (HeLa, CF, and RPE) were also pre-treated with the peptides for the same duration. In all cases, unbound peptides were removed after washing 3× with PBS. Thereafter, cells were infected for 6 h with a recombinant virus, HSV-1 (KOS) gL86, at multiple plaque forming units (PFUs) and β-galactosidase assays were performed using either a soluble substrate o-nitrophenyl-β-D-galactopyranoside (ONPG at 3.0 mg/ml; ImmunoPure, Pierce) or X-gal (Sigma). For the soluble substrate, the enzymatic activity was measured at 410 nm using a micro-plate reader (Spectra Max 190, Molecular Devices, Sunnyvale, Calif.). For the X-gal assay, cells were fixed (2% formaldehyde and 0.2% glutaraldehyde) and permeabilized (2 mM MgCl2, 0.01% deoxycholate, and 0.02% nonidet NP-40 (Sigma)). 1 ml of β-galactosidase reagent (1.0 mg/ml X-gal in ferricyanide buffer) was added to each well and incubated at 37° C. for 90 min before the cells were examined using bright field microscopy under the 20× objectives of the inverted microscope (Zeiss Axiovert 100 M).
The ability of the G1 and G2 peptides to block HSV-1 entry into natural target cells (HeLa and primary cultures of human CF) was compared. A similar dosage response curve was generated when HeLa (FIG. 2A) or CF (FIG. 2B) were pre-treated with G1 or G2 peptides during HSV-1 entry. […] HeLa cells (FIG. 2A) and primary cultures of human corneal fibroblasts (CF) (FIG. 2B) were tested. Cells in 96-well plates were pre-treated for 60 min with indicated mM concentrations of G1, G2, or Cp peptides. Mock-treated cells (abbreviated as C) served as a control. Pretreated cells were infected with a β galactosidase-expressing recombinant virus HSV-1 (KOS) HSV-1 gL86 (25 pfu/cell) for 6 hr. Viral entry was quantitated as described above in reference to FIG. 1. Confirmation of HSV-1 entry blocking activity of G1, G2, and control (Cp) peptides on a per cell basis was obtained after cells were infected as described above followed by X-gal (1.0 mg/ml) staining (Right panels), which yields an insoluble blue product upon hydrolysis by β-galactosidase expressed from the input viral genomes. […] Microscopy was performed using a 20× objective of Zeiss Axiovert 100.

[1] = 100 μl eye drop at 0.5 mM before 10^6 PFU, 4 and 7 days post infection

| Sequence | HSV-1 protein (gD) expression in cornea (HSV-1 (KOS); [1]) | state of corneal epithelium (HSV-1 (KOS); [1]) | blocking of HSV-1 entry/infection (HSV-1 (KOS) gL86) | effectiveness in blocking entry compared with G1 (HSV-1 (KOS) gL86; in virtually all cases (FIGS. 1 and 2)) | HSV-1 gD staining in cornea (HSV-1 (KOS); 0.5 mM eye drop, day 4) | corneal inflammation (HSV-1 (KOS); 0.5 mM eye drop, day 4) | HSV-1 staining in cornea (HSV-1 (KOS); 0.5 mM eye drop, day 7) | state of corneal epithelium (HSV-1 (KOS); 0.5 mM eye drop, day 7) |
| --- | --- | --- | --- | --- | --- | --- | --- | --- |
| MPRRRRIRRRQK [G2, MPRRRRIRRRQK] | virtually no HSV-1 protein expression was detected | epithelium remained intact | effective in blocking infection of individual cells | slightly more effective in blocking entry than G1 | – | – | – | – |
| RVCGSIGKEVLG [Cp, reference compound] | – | – | no effect on HSV-1 entry | – | significant staining for HSV-1 gD | severe chronic inflammation | gone | damage to the corneal epithelium was still evident |
| LRSRTKIIRIRH [G1, LRSRTKIIRIRH] | virtually no HSV-1 protein expression was detected | epithelium remained intact | effective in blocking infection of individual cells | – | – | – | – | – |
